Assay results as given in US20150265682A1, “THERAPEUTIC METHODS AND COMPOSITIONS FOR TREATING DIABETES” (Orient Europharma Co., Ltd., priority 2014, published 2015).

Key:
IL-6-treated C2C12 cells = test: Glycogen content assay in IL-6-treated (insulin resistant) C2C12 cells; format: cell-based; details: 30 minutes; for fold increase of glycogen content: IL-6-treated C2C12
Method: The C2C12 skeletal muscle cells were cultured in Dulbecco's modified Eagle's medium (DMEM; Gibco/Invitrogen, Carlsbad, Calif.), and the human hepatocellular carcinoma cell line, Hep3B, was cultured in Roswell Park Memorial Institute medium 1640 (RPMI 1640 medium; Gibco/Invitrogen, Carlsbad, Calif.). Cells were cultured at 37° C. in the humidified incubator supplied with 5% CO2. Culture mediums were supplemented with 4.5 mgmL^−1 glucose, penicillin 100 IUmL^−1, streptomycin 100 μgmL^−1 and 10% fetal bovine serum (Gibco/Invitrogen, Carlsbad, Calif.). Only C2C12 cells were then switched to 2% horse serum for 3 days after reaching the 70% confluence. Myotubes formation was achieved after 4 days of incubation, and the cells were used for subsequent experiments. Culture mediums were replaced by serum free DMEM or RPMI for 24 h before experiments (see e.g., procedure described in Sultan et al., 2006).
C2C12 and Hep3B cells were treated with 1 nM insulin, 100 μM metformin, and the assigned concentration of borapetoside A for 30 minutes. To develop the insulin resistance state of cells, C2C12 cells were incubated with IL-6 at 20 ngmL^−1 for 1 hour. Later, the cells were treated with 1 nM insulin, 100 μM metformin, and the assigned concentration of borapetoside A for 30 minutes. After the assigned treatment, cells were washed twice with phosphate buffered saline (PBS). Glycogen content was measured as previously described, with some modifications (see e.g., Savage et al., 2008). The protein concentrations of the cell lysates were determined by using Pierce BCA Protein Assay Kit (Thermo-Scientific, Rockford, Ill.). The glycogen content of each sample was normalized by total protein.

[1] = system: skeletal muscle of normal, T1DM and T2DM mice; test: Glycogen content in skeletal muscle after borapetoside C and insulin; format: in vivo, ICR mice; details: for Glycogen content in skeletal muscle: BoC 0.1 mg/kg i.p. 30 min before insulin, 30 min after insulin injection
Method: (§1) T1DM mice were induced by a known method. In brief, an intraperitoneal injection of streptozotocin (STZ; Sigma Chemical Co.; St. Louis, Mo.) at 150 mg/kg was performed in mice that were fasted for 48 h. The induction of T1DM was assessed and confirmed when the mice had plasma glucose levels ≧350 mg/dL, accompanied with polyuria, hyperphagia and decreased body weight. The control mice group received an injection of vehicle and then carried out for 4 weeks. T2DM mice were induced by maintaining on a fat-rich chow diet and fructose-sweetened water for 4 weeks from the age of 4-5 weeks according to previous methods. The induction T2DM mice were assessed by measuring fasting plasma glucose levels and confirmed when plasma glucose level was ≧150 mg/dL after a 4-week induction.
Glycogen content of skeletal muscles was measured by a known method. In brief, mice were injected with borapetoside C (5.0 mg/kg, interperitoneal) for 60 min or insulin (0.5 IU/kg, interperitoneal.) for 30 min, and the soleus muscle was isolated from anesthetized mice. About 40 mg of muscle sample was dissolved in 1 N KOH at 75° C. for 30 min. The dissolved homogenate was neutralized by glacial acetic acid and then incubated overnight in acetate buffer (0.3 M sodium acetate, pH 4.8) containing amyloglucosidase (Sigma, St. Louis, Mo.). The mixture was then neutralized with 1 N NaOH to stop the reaction. The glycogen contents in the tissue samples were determined as μg of glucose per mg of tissue (wet weight).
Both non-diabetic and diabetic mice were subjected to various doses of insulin injections at 30 min after intraperitoneal injections with borapetoside C (0.1 mg/kg) or with the vehicle. The glycogen contents in skeletal muscles were then determined at 30 min after insulin injections (Table 4). The ratios of increased glycogen content in the other groups were normalized to those of vehicle-treated group. The ratio was 119.8%, 125.3%, and 108.5% in normal, T1DM, and T2DM mice of insulin-treated group. In borapetoside C combined with insulin-treated group, it was 130.2%, 162.8%, and 122.6% in normal, T1DM, and T2DM mice. […] The increase of insulin sensitivity by borapetoside C is more prominent in diabetic mice than normal mice. Similarly, plasma glucose reduction in mice treated with insulin and borapetoside A are tested and measured.

[2] = system: non-diabetic and T2DM mice; test: Oral glucose tolerance test (OGTT) with borapetoside C; format: in vivo, ICR mice; details: 5 mg/kg
Method: This study was conducted following the University ethical guidelines on animal experimentation and complied with the Guide for the Care and Use of Laboratory Animals published by the US National Institutes of Health (NIH publication no. 85-23, revised 1996). The animal facility was well controlled for temperature (22±1° C.), and humidity (60±5%) and a 12 h/12 h light-dark cycle was maintained with access to food and water ad libitum. Four-week-old male ICR mice were acquired from BioLasco Taiwan Co., Ltd. and maintained at College of Medicine Experimental Animal Center, National Taiwan University. The study was conducted on 8-10 week-old male ICR mice.
as §1
Blood samples were collected from the orbital vascular plexus of mice under anesthesia with sodium pentobarbital (80 mg/kg, intraperitoneal, Sigma Chemical Co., St. Louis, Mo., USA). Blood samples were then centrifuged at 13000 rpm for 5 min, and the plasma was kept on ice prior to the assay. The plasma glucose concentration was measured using commercial kits following manufacturer's instructions (BioSystems S. A., Barcelona, Spain).
To perform OGTT, mice were fasted overnight, divided into 2 groups and then administered a vehicle control and 5 mg/kg borapetoside C. This was followed by administration of a glucose solution at 2 g/kg via tube feeding. Blood samples were withdrawn from the orbital vascular plexus at intervals of 30, 60, 120, and 150 min after glucose administration. For the ITT, mice were fasted for 3 h. Human insulin (Insulin Actrapid) HM; Novo Nordisk, Denmark) was injected intraperitoneally after an intraperitoneal administration of 0.1 mg/kg borapetoside C for 30 min. Blood samples were collected from the orbital vascular plexus at the timed intervals mentioned above.

Compound | glycogen content (IL-6-treated C2C12 cells; IL-6-induced insulin resistant model, 1 nM insulin) | Glycogen content in skeletal muscle ([1]; Normal mice) | ratio of glycogen content normalized to vehicle-treated group ([1]; T1DM mice) [%] | Glycogen content in skeletal muscle ([1]; T1DM mice) | ratio of glycogen content normalized to vehicle-treated group ([1]; T2DM mice) [%] | Glycogen content in skeletal muscle ([1]; T2DM mice) | ratio of glycogen content normalized to vehicle-treated group ([1]; normal mice) [%] | basal plasma glucose concentration in OGTT ([2]; T2DM mice) [mg/dL] | decrease of area under the curve (AUC) in OGTT vs vehicle-treated group ([2]; T2DM mice) [%] | plasma glucose levels at 60, 120 and 150 min vs vehicle-treated mice ([2]; T2DM mice) | plasma glucose concentration sixty min after oral glucose administration ([2]; T2DM mice, glucose 2 g/kg) [mg/dL] | basal plasma glucose concentration in OGTT ([2]; non-diabetic mice) [mg/dL] | plasma glucose levels at 120 min and 150 min vs vehicle-treated mice ([2]; non-diabetic mice) | plasma glucose concentration at 60 min after oral administration of glucose ([2]; non-diabetic mice, glucose 2 g/kg) [mg/dL] | decrease of area under the curve (AUC) in OGTT vs vehicle-treated group ([2]; normal mice) [%] | fold increase of glycogen content (IL-6-treated C2C12 cells; 10^−6 mol/L) [fold] | fold increase of glycogen content (IL-6-treated C2C12 cells; 10^−7 mol/L) [fold] | fold increase of glycogen content (IL-6-treated C2C12 cells; 10^−8 mol/L) [fold]
Insulin: human insulin, Insulin Actrapid HM, a short-acting insulin provided by Novo Nordisk [reference compound] | not increased | 38.1 ± 0.3 μg of glucose per mg of tissue (wet weight) | 125.3 | 38.1 ± 2.3 μg of glucose per mg of tissue (wet weight) | 108.5 | 35.5 ± 1.1 μg of glucose per mg of tissue (wet weight) | 119.8 |  |  |  |  |  |  |  |  |  |  | 
COC(=O)C1=CCC[C@H]2[C@]3(C)C[C@@H](c4ccoc4)OC(=O)[C@@H]3C[C@@H](O[C@@H]3O[C@H](CO)[C@@H](O)[C@H](O)[C@H]3O)[C@@]12C [Borapetoside C, borapetoside C] |  | 32.7 ± 0.7 μg of glucose per mg of tissue (wet weight) |  | 30.0 ± 1.2 μg of glucose per mg of tissue (wet weight) |  | 30.7 ± 1.3 μg of glucose per mg of tissue (wet weight) |  | 206.8 ± 19.0 | 16 | significantly lower | 338.2 ± 24.5 | 115 ± 3.5 | significantly lower | 312.8 ± 21.3 | 22 |  |  | 
C[C@@]12C[C@@H](c3ccoc3)OC(=O)[C@@H]1C[C@@H]1OC(=O)[C@@]3(O)[C@@H](O[C@@H]4O[C@H](CO)[C@@H](O)[C@H](O)[C@H]4O)CC[C@@H]2[C@@]13C [Borapetoside A, borapetoside A] |  |  |  |  |  |  |  |  |  |  |  |  |  |  |  | 1.64±0.05 | 1.38±0.06 | 1.35±0.08
